Experimental data reported in US20140069008A1, “PLANT C[…] UTILIZING PHOSPHITE AS A NUTRIENT AND AS A CONTROL AGENT FOR WEEDS AND ALGAE” (Centro de Investigacion y de Estudios Avanzados del …, priority 2010, published 2014).

How the values were obtained:
[1] = tested on: control seedlings (wild type, Col-0); assay: Germination and growth of non-transformed seedlings in media lacking Pi, supplemented with Phi; assay type: in vivo, Arabidopsis
Experimental: To confirm that 35S::PTXD plants are capable of using Phi as a P source, seeds from transgenic lines and non-transformed siblings were germinated in media lacking Pi, and supplemented with Phi.
FIG. 5. Transgenic Arabidopsis plants expressing a phosphite oxidoreductase can use phosphite as a phosphorus source. (A) Comparative growth of seedlings from ptxDAt-3, -5 and -7 lines, and wild type (WT, Col-0) in solid media containing 1 mM phosphate (Pi) or 1 mM phosphite (Phi). (B) Transgenic Arabidopsis lines and WT control grown in vertical plates containing 1 mM Phi. (C) Transgenic and WT plants grown in a sterilized mixture of sand and vermiculite fertilized with Pi or Phi as phosphorus (P) source. Treatment without addition of a P source (NO P) was utilized as a control. A top view of WT plants in media containing 40 mg·kg^−1 Phi is included. Photographed plants are representative of two experiments with 8-10 plants/treatment/line each. The bar represents 5 cm to indicate scale.
FIG. 6. Growth of WT Arabidopsis and tobacco plants in phosphite-containing media. Comparative growth of Arabidopsis and tobacco non-transformed seedlings in media lacking a phosphorus (P) source supplemented with 1 mM or 0.005 mM phosphate (Pi) or 1 mM phosphite (Phi).

[2] = tested on: control plants (WT Arabidopsis); assay: Greenhouse growth in sterilized sand and vermiculite supplemented with Phi, control plants; assay type: in vivo
Experimental: For Arabidopsis greenhouse experiments, pots were filled with 0.3 kg of a sterilized mixture of sand and vermiculite (1:1) and mechanically mixed with either Pi (KH2PO4) or Phi (NaH2PO3.5H2O) at 10, 20, and 40 mg·kg^−1. For tobacco experiments, 3 kg of the same substrate were weighed in black plastic bags amended with 20, 40, and 80 mg·kg^−1 of Pi or Phi. One plant per pot and 8-10 plants per line per treatment were included. Pots were arranged following a completely random design in the greenhouse. At harvest, aerial parts of Arabidopsis (36 days old) and Tobacco (120 days old) plants were cut off at the soil surface and dried in a vacuum oven at 70° C. for biomass quantification. In all cases, seeds were collected separately. Photosynthesis rate was determined using a portable Li-6200 photosynthesis system (Li-Cor, Lincoln, Nebr., USA) on fully expanded, young leaves. Leaf area was calculated using the software ImageJ [35].
FIG. 5. Transgenic Arabidopsis plants expressing a phosphite oxidoreductase can use phosphite as a phosphorus source. (A) Comparative growth of seedlings from ptxDAt-3, -5 and -7 lines, and wild type (WT, Col-0) in solid media containing 1 mM phosphate (Pi) or 1 mM phosphite (Phi). (B) Transgenic Arabidopsis lines and WT control grown in vertical plates containing 1 mM Phi. […]

WT plants (tobacco) = assay: Greenhouse growth in sterilized sand and vermiculite amended with Phi, WT tobacco; assay type: in vivo, Nicotiana tabacum L. cv Xanthi; settings: substrate supplemented with Phi, after transplantation
Source text: (§1) To determine whether expression of the ptxD gene would enable other plant species more amenable for physiological and weed-control studies to use Phi as a P source, we generated transgenic tobacco plants harboring the 35S::PTXD construct (ptxDNt lines) (see FIG. 8). Transgenic and control seedlings were transferred to plastic bags containing a sterilized mixture of sand and vermiculite amended with either Phi or Pi as P source. […] Because the main negative effect in vitro of Phi on WT plants was on root growth, we also examined the root system of transgenic and control plants grown under different treatments. […] Transgenic plants fertilized with Phi quantitatively performed as well as WT and ptxDNt plants fertilized with Pi (see FIG. 10A).
For Arabidopsis greenhouse experiments, pots were filled with 0.3 kg of a sterilized mixture of sand and vermiculite (1:1) and mechanically mixed with either Pi (KH2PO4) or Phi (NaH2PO3.5H2O) at 10, 20, and 40 mg·kg^−1. […] At harvest, aerial parts of Arabidopsis (36 days old) and Tobacco (120 days old) plants were cut off at the soil surface and dried in a vacuum oven at 70° C. for biomass quantification. […] Photosynthesis rate was determined using a portable Li-6200 photosynthesis system (Li-Cor, Lincoln, Nebr., USA) on fully expanded, young leaves. Leaf area was calculated using the software ImageJ [35]. […]

ptxDNt plants = assay: Greenhouse growth in sterilized sand and vermiculite amended with Phi, transgenic tobacco; assay type: in vivo, Nicotiana tabacum L. cv Xanthi
Source text: as §1
Pi is essential for CO2 fixation in the chloroplast, and plants suffering from Pi starvation have reduced levels of photosynthesis. […] When fertilized with either Pi or Phi, ptxDNt plants had rates of photosynthesis similar to those observed for control plants grown in Pi (see FIG. 10A). The effect on photosynthesis and root system development of control plants fertilized with Phi could not be evaluated because these plants died soon after transplantation.
For Arabidopsis greenhouse experiments, pots were filled with 0.3 kg of a sterilized mixture of sand and vermiculite (1:1) and mechanically mixed with either Pi (KH2PO4) or Phi (NaH2PO3.5H2O) at 10, 20, and 40 mg·kg^−1. […] At harvest, aerial parts of Arabidopsis (36 days old) and Tobacco (120 days old) plants were cut off at the soil surface and dried in a vacuum oven at 70° C. for biomass quantification. […] Photosynthesis rate was determined using a portable Li-6200 photosynthesis system (Li-Cor, Lincoln, Nebr., USA) on fully expanded, young leaves. Leaf area was calculated using the software ImageJ [35].
FIG. 10. […] Note that Phi was not detected either in leaf or floral tissues of ptxDNt-36 plants grown in a Phi-amended substrate. * Indicates measurements that are statistically different from the corresponding control (p<0.005).

[3] = tested on: False Brome (Brachypodium distachyon); assay: Growth competition experiment, weed; assay type: in vivo
Source text: (§2) In addition to the incapacity of plants to metabolize it, Phi acts as a potentially effective herbicide mainly by interfering with the signaling pathways that induce the rescue system activated in Pi-starved plants. Cultivation of transgenic plants expressing the ptxD gene, combined with Phi as a P fertilizer, could be an effective weed control system in soils with low Pi availability. To test this idea, we carried out growth competition experiments between ptxDNt plants and the grass weed False Brome (Brachypodium distachyon), using Phi or Pi as a P fertilizer. In unfertilized soil, both B. distachyon and tobacco plants had limited growth. When soil was fertilized with Pi, the growth of both species increased, with the grass showing faster growth than the tobacco plants.
(§3) For growth competition experiments, different proportions of seeds from ptxDNt-80 and the following weeds were utilized (transgenic:weed): Ipomoea purpurea (13:30), Brachiaria plantaginea (13:60), Amaranthus hybridus (5:15), Brachypodium distachyon (50:50). All seeds were sown in a tray containing a nonsterilized mixture of sand and vermiculite (2 kg for experiments with Amaranthus hybridus and 6 kg for the rest). […] Plants were harvested (at 54 day old for Brachiaria and Ipomoea or at 40 day old for A. hybridus experiments) for biomass quantification. […]

[4] = tested on: ptxDNt plants (ptxDNt-80); assay: Growth competition experiment, transgenic tobacco; assay type: in vivo, Nicotiana tabacum; settings: Phi fertilization, competition with B. distachyon
Source text: as §2, §3

[5] = tested on: transgenic tobacco line ptxDNt-80; assay: Cultivation of transgenic tobacco in non-sterilized acidic agricultural soil amended with phosphite; assay type: in vivo
Experimental: The results of Example 1 were obtained from greenhouse experiments with plants grown in a sterilized mixture of sand and vermiculite as the substrate. In contrast, the present example reports experiments performed in a greenhouse using a non-sterilized agricultural soil as a substrate, to determine whether the cultivation system disclosed herein works equally well with a natural substrate. Although the experiments were performed in a greenhouse, the agricultural soil was not sterilized and therefore contained soil organisms, such as bacteria and fungi, that live naturally in the soil.
An acidic agricultural soil was obtained from North Mexico. The soil has a low content of phosphorus, about 5 parts per million. The soil was used directly from the field, and was not sterilized. The soil is a sandy loam, composed of about 30% clay, 21% silt, and 49% sand, and is acidic, with a pH of 5.1. The soil has an electrical conductivity (milli-mhos per centimeter) of 0.20. The soil has 1.4% organic matter. Besides phosphorus, the soil has the following assimilable nutrients and minor elements (parts per million): nitrogen 5, potassium 100, iron 7, manganese 26, copper 0.2, and zinc 0.9. The soil has soluble cations and anions (milli-equivalents per liter) as follows: potassium 0.15, calcium 1.5, magnesium 0.5, sodium 0.5, bicarbonates 1.0, and chlorides 0.7.
A transgenic tobacco line, ptxDNt-80, was used for the experiments. The transgenic line has been modified genetically to express a bacterial phosphite oxidoreductase, namely, PtxD (SEQ ID NO:1). The soil was amended with 40, 60, or 80 parts per million of phosphorus by addition of phosphate or phosphite. Then, seeds from the transgenic and control lines were sowed on the soil. The growth of the transgenic line was measured at different days after germination.

phosphite
growth of control seedlings [1]: completely arrested
survival of control plants [2]: ≤ 20 days
development of WT plants (WT plants (tobacco)): completely arrested their development and died a few days after transplantation
total biomass difference versus plants under similar Pi regime (ptxDNt plants; 80 mg·kg^−1 of Phi, greater than Pi, statistically significant): 40%
total biomass versus plants under similar Pi regimes (ptxDNt plants; 20 and 40 mg·kg^−1 of Phi): slightly higher
rate of photosynthesis versus control plants grown in Pi (ptxDNt plants; fertilized with Phi): similar
decrease of weed biomass with respect to Pi fertilization ([3]; Phi fertilization, competition with ptxDNt tobacco): 90%
time at which weed growth was completely arrested ([3]; Phi used as fertilizer): 15-20 days after sowing
increase of tobacco biomass with respect to Pi fertilization [4]: 865%
more seeds than either line fertilized with the same amount of phosphate ([5]; 20 parts per million phosphite, four months after germination): 33%
height versus transgenic or control plants fertilized with phosphate ([5]; 68 or 74 days after germination): greater height
biomass of leaves and stems versus either line fertilized with phosphate ([5]; 80 parts per million phosphite, 75 days after germination): higher biomass
total production of capsules and seeds per plant versus either line fertilized with phosphate ([5]; four months after germination): similar
